The target in the assay is T1, Recombinant human HSD17B13 enzyme (Homo sapiens, UniProt Q7Z5P4).
T1 sequence (Q7Z5P4 20-300): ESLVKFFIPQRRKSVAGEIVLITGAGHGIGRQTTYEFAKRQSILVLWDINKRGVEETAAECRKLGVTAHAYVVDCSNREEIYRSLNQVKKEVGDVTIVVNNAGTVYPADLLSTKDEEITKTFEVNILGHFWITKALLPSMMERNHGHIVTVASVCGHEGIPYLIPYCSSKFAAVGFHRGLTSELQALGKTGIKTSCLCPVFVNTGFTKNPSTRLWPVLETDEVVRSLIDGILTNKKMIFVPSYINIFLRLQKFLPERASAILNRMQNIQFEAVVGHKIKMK
In words: HSD17b13 NAD(P)H-Glo biochemical assay. The conditions noted are these: for IC50: 50 uM estradiol, 1 mM NAD+, NAD(P)H-Glo luminescence, read-out: HSD17β13 IC50. The method, then: Example B-1: HSD17b13 NAD(P)H-Glo Biochemical Assay
Recombinant human HSD17B13 enzyme. Substrate: estradiol (Sigma β-Estradiol E8875), 100 mM in DMSO. Cofactor: NAD+ Grade I free acid (Sigma 10127965001), 20 mM in H2O. Assay buffer final concentration: 20 mM Tris pH7.4 with 0.002% Tween-20 and 0.02% BSA. Assay performed in 384 well solid bottom plate (Corning 3570). Enzymatic activity detected by NAD(P)H-Glo™ Detection System (Promega G9062).
Inhibitor compounds were serially diluted in DMSO and then further diluted in assay buffer to a 10× concentration consisting of 1% DMSO.
HSD17b13 enzyme was diluted in 1× assay buffer to the desired enzyme concentration based on the specific activity of the enzyme lot. 20 uL of diluted enzyme was added to each well along with 2.5 uL of 10× inhibitor solution. Assay plate was incubated at RT for 20 minutes, and then 2.5 uL of a 10× substrate/cofactor mix was added to each well for a final concentration of 50 uM estradiol and 1 mM NAD+. Assay plate was incubated at 37° C. for 3 hours. NAD(P)H-Glo™ Detection System reagents were prepared according to manufacturer's specifications, and 25 uL was added to each well. After incubating for 1 hour at RT, luminescence was measured.

Each structure is given as a SMILES string. Where a name gives a salt, the structure may show the parent alone.

For orientation: IC50 means the concentration that gives 50% inhibition.

For the compound `Oc1cc2c(cnn2-c2ccc(-c3ccc(O)c(Cl)c3)cc2)cc1F` [Compound 15, 1-(3′-Chloro-4′-hydroxy-[1,1′-biphenyl]-4-yl)-5-fluoro-1H-indazol-6-ol], the IC50 is 100 to 1000 nM. Same read-out and setting: to `O=S1(=O)CCN(c2ccc(-n3ncc4cc(F)c(O)c(F)c43)cc2)CC1` [Compound 23.5, 4-(4-(5,7-Difluoro-6-hydroxy-1H-indazol-1-yl)phenyl)thiomorpholine 1,1-dioxide] belongs 100 to 1000 nM. `CC(=O)Nc1ccc(-c2ccc(-n3ncc4cc(F)c(O)cc43)cc2)cc1` [Compound 13.32, N-(4′-(5-Fluoro-6-hydroxy-1H-indazol-1-yl)-[1,1′-biphenyl]-4-yl)acetamide]: under “3 h, at 100 uM compound, read-out: HSD17β13 % at 100 uM”, the inhibition at 100 µM turned out to be 40%.

In the case of `CC1(C)CCN(c2ccc(-n3ncc4c(C(F)(F)F)c(F)c(O)nc43)cc2)CC1` [Compound 7.4, 1-(4-(4,4-Dimethylpiperidin-1-yl)phenyl)-5-fluoro-4-(trifluoromethyl)-1H-pyrazolo[3,4-b]pyridin-6-ol], the half-maximal inhibitory concentration (IC50) lay in the range of 1000 to 30000 nM.

For the compound `Oc1c(F)cc2cnn(-c3ccc(N4CC5(CCOCC5)C4)cc3)c2c1F` [Compound 23.26, 1-(4-(7-Oxa-2-azaspiro[3.5]nonan-2-yl)phenyl)-5,7-difluoro-1H-indazol-6-ol], the IC50 was under 100 nM.

`OCc1cccc(-c2ccc(-n3ncc4cc(F)c(O)cc43)cc2)c1` [Compound 13.22, 5-Fluoro-1-(3′-(hydroxymethyl)-[1,1′-biphenyl]-4-yl)-1H-indazol-6-ol]: the IC50 lay within 1000 to 30000 nM. On to `CC1(C)COCCN1c1ccc(-n2ncc3cc(F)c(O)c(F)c32)cc1` [Compound 20.6, 1-(4-(3,3-Dimethylmorpholino)phenyl)-5,7-difluoro-1H-indazol-6-ol], for which the 50% inhibitory concentration (IC50) is 100 to 1000 nM.

`Oc1c(F)cc2cnn(-c3ccc(C4CCCCC4)cc3)c2c1F` [Compound 27.5, 1-(4-Cyclohexylphenyl)-5,7-difluoro-1H-indazol-6-ol]: the IC50 was under 100 nM.

In the case of `CC1(C)CCN(c2ccc(-n3nnc4c(Cl)c(F)c(O)cc43)cc2)CC1` [Compound 40.1, 4-Chloro-1-(4-(4,4-dimethylpiperidin-1-yl)phenyl)-5-fluoro-1H-benzo[d][1,2,3]triazol-6-ol], the IC50 was under 100 nM. As to `Oc1cc2c(cnn2-c2ccc(-c3ccncc3)cc2)cc1F` [Compound 13.15, 5-Fluoro-1-(4-(pyridin-4-yl)phenyl)-1H-indazol-6-ol], the inhibition at 30 µM (3 h, at 30 uM compound, read-out: HSD17β13 % at 30 uM) came out at 40%.

With `CS(=O)(=O)N1CCCC(c2ccc(-n3ncc4cc(F)c(O)c(F)c43)cc2)C1` (stereo not shown) [Compound 30.1, 5,7-Difluoro-1-(4-(1-(methylsulfonyl)piperidin-3-yl)phenyl)-1H-indazol-6-ol], the IC50 is under 100 nM. On the same count and under the same terms, to `Oc1cc(-c2ccc(-n3ncc4cc(F)c(O)c(F)c43)cc2)ccc1Cl` [Compound 13.19, 1-(4′-Chloro-3′-hydroxy-[1,1′-biphenyl]-4-yl)-5,7-difluoro-1H-indazol-6-ol] belongs under 100 nM; to `Oc1cccc(-c2ccc(-n3ncc4c(F)cc(O)c(F)c43)cc2)c1` [Compound 16, 4,7-Difluoro-1-(3′-hydroxy-[1,1′-biphenyl]-4-yl)-1H-indazol-6-ol], 100 to 1000 nM; to `CCN1CCC(c2ccc(-n3ncc4cc(F)c(O)c(F)c43)cc2)CC1` [Compound 29, 1-(4-(1-Ethylpiperidin-4-yl)phenyl)-5,7-difluoro-1H-indazol-6-ol TFA salt], under 100 nM. The same measure, in the same setting: the result for `CC1(O)CCN(c2ccc(-n3ncc4cc(F)c(O)c(F)c43)cc2)CC1` [Compound 23.22, 5,7-Difluoro-1-(4-(4-hydroxy-4-methylpiperidin-1-yl)phenyl)-1H-indazol-6-ol] reads 100 to 1000 nM. With `CCn1c(=O)n(-c2ccc(N3CCC(C)(C)CC3)cc2)c2c(F)c(O)c(F)cc21` [Compound 12, 3-(4-(4,4-Dimethylpiperidin-1-yl)phenyl)-1-ethyl-4,6-difluoro-5-hydroxy-1H-benzo[d]imidazol-2(3H)-one], the IC50 fell in the range of 100 to 1000 nM. On the same count and under the same terms, the result for `CS(=O)(=O)c1ccccc1-c1ccc(-n2ncc3cc(F)c(O)cc32)cc1` [Compound 13.24, 5-Fluoro-1-(2′-(methylsulfonyl)-[1,1′-biphenyl]-4-yl)-1H-indazol-6-ol] reads 1000 to 30000 nM. Still for that read-out and setting: the result for `Cc1cccc(-c2ccc(-n3ncc4cc(F)c(O)cc43)cc2)c1` [Compound 13.10, 5-Fluoro-1-(3′-methyl-[1,1′-biphenyl]-4-yl)-1H-indazol-6-ol] reads 100 to 1000 nM. Turning to `COc1nn(-c2ccc(N3CCC(C)(C)CC3)cc2)c2c(F)c(O)c(F)cc12` [Compound 37.1, 1-(4-(4,4-Dimethylpiperidin-1-yl)phenyl)-5,7-difluoro-3-methoxy-1H-indazol-6-ol], the 50% inhibitory concentration (IC50) is 100 to 1000 nM.

With `CC1(C)CCN(c2ccc(-n3nnc4cc(F)c(O)cc43)cc2)CC1` [Compound 21.7, 1-(4-(4,4-Dimethylpiperidin-1-yl)phenyl)-5-fluoro-1H-benzo[d][1,2,3]triazol-6-ol], the half-inhibitory concentration (IC50) is under 100 nM. Take `Oc1cccc(-c2ccc(-n3ncc4cc(F)c(O)c(F)c43)cc2)c1` [Compound 13.12, 5,7-Difluoro-1-(3′-hydroxy-[1,1′-biphenyl]-4-yl)-1H-indazol-6-ol]: the IC50 was under 100 nM. On to `CS(=O)(=O)N1CCN(c2ccc(-n3ncc4cc(F)c(O)c(F)c43)c(F)c2)CC1` [Compound 20.8, 5,7-Difluoro-1-(2-fluoro-4-(4-(methylsulfonyl)piperazin-1-yl)phenyl)-1H-indazol-6-ol], for which the IC50 is under 100 nM. With `CS(=O)(=O)c1ccc(-c2ccc(-n3ncc4cc(F)c(O)cc43)cc2)cc1` [Compound 13.26, 5-Fluoro-1-(4′-(methylsulfonyl)-[1,1′-biphenyl]-4-yl)-1H-indazol-6-ol], the IC50 is 100 to 1000 nM. Regarding `CC1(C#N)CN(c2ccc(-n3ncc4cc(F)c(O)c(F)c43)cc2)C1` [Compound 23.27, 1-(4-(5,7-Difluoro-6-hydroxy-1H-indazol-1-yl)phenyl)-3-methylazetidine-3-carbonitrile], the concentration for half-maximal inhibition (IC50) was under 100 nM.

On to `Cc1cc(N2CCN(S(C)(=O)=O)CC2)ccc1-n1ncc2cc(F)c(O)c(F)c21` [Compound 20.2, 5,7-Difluoro-1-(2-methyl-4-(4-(methylsulfonyl)piperazin-1-yl)phenyl)-1H-indazol-6-ol], for which the concentration for half-maximal inhibition (IC50) lay in the range of 100 to 1000 nM. The same measure, in the same setting: to `CC1(C)CCN(c2ccc(-n3ncc4cc(F)c(O)nc43)cc2)CC1` [Compound 25.2, 1-(4-(4,4-Dimethylpiperidin-1-yl)phenyl)-5-fluoro-1H-pyrazolo[3,4-b]pyridin-6-ol] belongs 1000 to 30000 nM; to `Oc1cccc(-c2ccc(-n3ncc4c(C(F)(F)F)c(F)c(O)cc43)cc2)c1` [Compound 4, 5-Fluoro-1-(3′-hydroxy-[1,1′-biphenyl]-4-yl)-4-(trifluoromethyl)-1H-indazol-6-ol], 100 to 1000 nM; to `CC1(C)CCN(c2ccc(-n3ncc4cc(F)c(O)c(C#N)c43)cc2)CC1` [Compound 26.10, 1-(4-(4,4-Dimethylpiperidin-1-yl)phenyl)-5-fluoro-6-hydroxy-1H-indazole-7-carbonitrile], 100 to 1000 nM.

Turning to `[O-][S+]1CC2(CN(c3ccc(-n4ncc5cc(F)c(O)c(F)c54)cc3)C2)C1` [Compound 32.2, 6-(4-(5,7-Difluoro-6-hydroxy-1H-indazol-1-yl)phenyl)-2-thia-6-azaspiro[3.3]heptane 2-oxide], the IC50 lay in the range of 100 to 1000 nM.

With `CC(C)N1CCN(c2ccc(-n3ncc4cc(F)c(O)c(F)c43)cc2)CC1` [Compound 24.2, 5,7-Difluoro-1-(4-(4-isopropylpiperazin-1-yl)phenyl)-1H-indazol-6-ol], the IC50 was 100 to 1000 nM.

For the compound `COC1CCN(c2ccc(-n3ncc4cc(F)c(O)c(F)c43)cc2)CC1` [Compound 22.4, 5,7-Difluoro-1-(4-(4-methoxypiperidin-1-yl)phenyl)-1H-indazol-6-ol], the IC50 was under 100 nM. The same measure, in the same setting: to `CC1(C)CCN(c2ccc(-n3nnc4c(F)c(F)c(O)cc43)cc2)CC1` [Compound 40.2, 1-(4-(4,4-Dimethylpiperidin-1-yl)phenyl)-4,5-difluoro-1H-benzo[d][1,2,3]triazol-6-ol] belongs 100 to 1000 nM; to `Oc1c(F)cc2nnn(-c3ccc(N4CC5(CCOCC5)C4)nn3)c2c1F` [Compound 26.24, 1-(6-(7-Oxa-2-azaspiro[3.5]nonan-2-yl)pyridazin-3-yl)-5,7-difluoro-1H-benzo[d][1,2,3]triazol-6-ol], 1000 to 30000 nM. On the same count and under the same terms, the result for `CS(=O)(=O)N1CCN(c2ccc(-n3ncc4cc(F)c(O)c(F)c43)cc2F)CC1` [Compound 23.7, 5,7-Difluoro-1-(3-fluoro-4-(4-(methylsulfonyl)piperazin-1-yl)phenyl)-1H-indazol-6-ol] reads 100 to 1000 nM.
